Counter-ions that a name gives are not always drawn.
Each compound was assayed on THP-1 cells (assay: THP-1 Soluble Protein Assay (LPS-stimulated; ELISA of TNF-a, TNF-R p75/80, TNF-R p55/60, IL-8)). Settings: Homo sapiens, THP-1, 3 µM; read-out: THP % Inhibition @ 3µM.
Format: cell-based, human
Experimental: Each vial of cells are cultured for about two weeks prior to being used for an assay and then are used for only 4 to 6 weeks to screen compounds.
Plates are placed into an incubator set at 5% CO2 and at 37° C. After 4 hours of incubation, 300 ml/well of tissue culture supernatant (TCS) is removed for use in an TNF-a ELISA.
Percent change in each soluble protein evaluated from the "vehicle positive control" was calculated for each compound concentration with the following formula: % Change =(pg/ml (compound) - pg/ml (veh pos control))/(pg/ml (veh pos control) - pg/ml (veh neg control))x 100 [formula]
For the soluble protein (TNF-a, p75/80, p55/60, IL-8) studies under stimulated conditions, the mean pg/ml of duplicate wells were determined and the results expressed as percent change from "vehicle positive control".

SMILES	inhibition at 3 µM [%]
CC#CCOc1ccc(S(=O)(=O)N2[C@@H](C(=O)NO)C(C)(C)SC[C@@H]2C)cc1 [Example 270, (3S,5S)-4-{[4-(2-Butynyloxy)phenyl]sulfonyl}-N-hydroxy-2,2,5-trimethyl-3-thiomorpholinecarboxamide]	62
CC#CCOc1ccc(S(=O)(=O)N2[C@H](C)CSC(C)(C)[C@@H]2C(=O)NO)cc1 [Example 271, (3S,5R)-4-{[4-(2-Butynyloxy)phenyl]sulfonyl}-N-hydroxy-2,2,5-trimethyl-3-thiomorpholinecarboxamide]	82
CC#CCOc1ccc(S(=O)(=O)N2C[C@H](C)SC(C)(C)[C@@H]2C(=O)NO)cc1 [Example 272, (3S,6S)-4-{[4-(2-Butynyloxy)phenyl]sulfonyl}-N-hydroxy-2,2,6-trimethyl-3-thiomorpholinecarboxamide]	92
CC#CCOc1ccc(S(=O)(=O)N2C[C@@H](CNC(=O)OC(C)(C)C)SC(C)(C)[C@@H]2C(=O)NO)cc1 [Example 273, tert-Butyl{(2R,5S)-4-{[4-(2-butynyloxy)phenyl]sulfonyl}-5-[(hydroxyamino)carbonyl]-6,6-dimethylthiomorpholinyl}methylcarbamate]	90
CC#CCOc1ccc(S(=O)(=O)N2C[C@@H](CN)SC(C)(C)[C@@H]2C(=O)NO)cc1 [Example 275, (3S,6R)-Trans-6-(aminomethyl)-4-{[4-(2-butynyloxy)phenyl]sulfonyl}-N-hydroxy-2,2-dimethyl-3-thiomorpholinecarboxamide hydrochloride]	82
CC#CCOc1ccc(S(=O)(=O)N2C[C@H](CC(=O)OC(C)(C)C)SC(C)(C)[C@@H]2C(=O)NO)cc1 [Example 277, tert-Butyl{(2S,5S)-4-{[4-(2-butynyloxy)phenyl]sulfonyl}-5-[(hydroxyamino)carbonyl]-6,6-dimethylthiomorpholinyl}acetate]	69
CC#CCOc1ccc(S(=O)(=O)N2C[C@H](CC(=O)O)SC(C)(C)[C@@H]2C(=O)NO)cc1 [Example 278, {(2S,5S)-4-{[4-(2-Butynyloxy)phenyl]sulfonyl}-5-[(hydroxyamino)carbonyl]-6,6-dimethylthiomorpholinyl}acetic acid]	89
CC#CCOc1ccc(S(=O)(=O)N2C[C@H](CC(=O)NO)SC(C)(C)[C@@H]2C(=O)NO)cc1 [Example 279, (3S,6S)-4-{[4-(2-Butynyloxy)phenyl]sulfonyl}-N-hydroxy-6-[2-(hydroxyamino)-2-oxoethyl]-2,2-dimethyl-3-thiomorpholinecarboxamide]	87
CC#CCOc1ccc(S(=O)(=O)N2C[C@H](CC(N)=O)SC(C)(C)[C@@H]2C(=O)NO)cc1 [Example 280, (3S,6S)-6-(2-Amino-2-oxoethyl)-4-{[4-(2-butynyloxy)phenyl]sulfonyl}-N-hydroxy-2,2-dimethyl-3-thiomorpholinecarboxamide]	91
CC#CCOc1ccc(S(=O)(=O)N2C[C@H](CC(=O)N(C)C)SC(C)(C)[C@@H]2C(=O)NO)cc1 [Example 281, (3S,6S)-4-{[4-(2-Butynyloxy)phenyl]sulfonyl}-6-[2-(dimethylamino)-2-oxoethyl]-N-hydroxy-2,2-dimethyl-3-thiomorpholinecarboxamide]	76
CC#CCOc1ccc(S(=O)(=O)N2C[C@H](CC(=O)N3CCOCC3)SC(C)(C)[C@@H]2C(=O)NO)cc1 [Example 282, (3S,6S)-4-{[4-(2-Butynyloxy)phenyl]sulfonyl}-N-hydroxy-2,2-dimethyl-6-[2-(4-morpholinyl)-2-oxoethyl]-3-thiomorpholinecarboxamide]	91
CC#CCOc1ccc(S(=O)(=O)N2C[C@H](CC(=O)N3CCN(C)CC3)SC(C)(C)[C@@H]2C(=O)NO)cc1 [Example 283, (3S,6S)-4-{[4-(2-Butynyloxy)phenyl]sulfonyl}-N-hydroxy-2,2-dimethyl-6-[2-(4-methyl-1-piperazinyl)-2-oxoethyl]-3-thiomorpholinecarboxamide hydrochloride]	90

Same assay, conditions: Homo sapiens, THP-1, read-out: THP % inhibition @ 3 µM

SMILES	inhibition at 3 µM [%]
CC1(C)SCCN(S(=O)(=O)c2ccc(OCC#CCO)cc2)[C@H]1C(=O)NO [Example 260, (3S)-N-Hydroxy-4-({4-[(4-hydroxy-2-butynyl)oxy]phenyl}sulfonyl)-2,2-dimethyl-3-thiomorpholine carboxamide]	95

Same assay, conditions: Homo sapiens, THP-1, read-out: THP % inhibition @ 3 µM, 3 µM

SMILES	inhibition at 3 µM [%]
CC1(C)SCCN(S(=O)(=O)c2ccc(OCC#CCCCOC3CCCCO3)cc2)C1C(=O)NO (centres unmarked) [Example 248, N-Hydroxy-2,2-dimethyl-4-[(4-{[6-(tetrahydro-2H-pyran-2-yloxy)-2-hexynyl]oxy}phenyl)sulfonyl]-3-thiomorpholine carboxamide]	21
CC1(C)SCCN(S(=O)(=O)c2ccc(OCC#CCCCO)cc2)C1C(=O)NO (centres unmarked) [Example 249, N-Hydroxy-4-({4-[(6-hydroxy-2-hexynyl)oxy]phenyl}sulfonyl)-2,2-dimethyl-3-thiomorpholine carboxamide]	51
CC(C)(C)OC(=O)NCCCC#CCOc1ccc(S(=O)(=O)N2CCSC(C)(C)[C@@H]2C(=O)NO)cc1 [Example 250, tert-Butyl 6-[4-({(3S)-3-[(hydroxyamino)carbonyl]-2,2-dimethylthiomorpholinyl}sulfonyl)phenoxy]-4-hexynylcarbamate]	27
CC1(C)SCCN(S(=O)(=O)c2ccc(OCC#CCCCN)cc2)[C@H]1C(=O)NO [Example 251, (3S)-4-({4-[(6-Amino-2-hexynyl)oxy]phenyl}sulfonyl)-N-hydroxy-2,2-dimethyl-3-thiomorpholine carboxamide]	22
CC(C)(C)OC(=O)NCCCCC#CCOc1ccc(S(=O)(=O)N2CCSC(C)(C)[C@@H]2C(=O)NO)cc1 [Example 252, tert-Butyl 7-[4-({(3S)-3-[(hydroxyamino)carbonyl]-2,2-dimethylthiomorpholinyl}sulfonyl)phenoxy]-5-heptynylcarbamate]	70
CC1(C)SCCN(S(=O)(=O)c2ccc(OCC#CCCCCN)cc2)[C@H]1C(=O)NO [Example 253, (3S)-4-({4-[(7-Amino-2-heptynyl)oxy]phenyl}sulfonyl)-N-hydroxy-2,2-dimethyl-3-thiomorpholine carboxamide]	37
CC1(C)SCCN(S(=O)(=O)c2ccc(OCC#Cc3ccccc3)cc2)[C@H]1C(=O)NO [Example 254, (3S)-N-Hydroxy-2,2-dimethyl-4-({4-[(3-phenyl-2-propynyl)oxy]phenyl}sulfonyl)-3-thiomorpholine carboxamide]	77
CC#CCOc1ccc(S(=O)(=O)N2CCS(=O)(=O)C(C)(C)[C@@H]2C(=O)NO)cc1 [Example 257, (3S)-4-{[4-(2-Butynyloxy)phenyl]sulfonyl}-N-hydroxy-2,2-dimethyl-3-thiomorpholine carboxamide 1,1-dioxide]	91
C#CCOc1ccc(S(=O)(=O)N2CCSC(C)(C)[C@@H]2C(=O)NO)cc1 [Example 258, (3S)-N-Hydroxy-2,2-dimethyl-4-{[4-(2-propynyloxy)phenyl]sulfonyl}-3-thiomorpholine carboxamide]	91
CCC#CCOc1ccc(S(=O)(=O)N2CCSC(C)(C)[C@@H]2C(=O)NO)cc1 [Example 259, (3S)-N-Hydroxy-2,2-dimethyl-4-{[4-(2-pentynyloxy)phenyl]sulfonyl}-3-thiomorpholine carboxamide]	92
CC(=O)OCC#CCOc1ccc(S(=O)(=O)N2CCSC(C)(C)[C@@H]2C(=O)NO)cc1 [Example 261, 4-[4-({(3S)-3-[(Hydroxyamino)carbonyl]-2,2-dimethylthiomorpholinyl}suffonyl)phenoxy]-2-butynyl acetate]	92
CC1(C)SCCN(S(=O)(=O)c2ccc(OCC#CC#CCO)cc2)[C@H]1C(=O)NO [Example 262, (3S)-N-Hydroxy-4-({4-[(6-hydroxy-2,4-hexadiynyl)oxy]phenyl}sulfonyl)-2,2-dimethyl-3-thiomorpholine carboxamide]	81
C#CC#CCOc1ccc(S(=O)(=O)N2CCSC(C)(C)[C@@H]2C(=O)NO)cc1 [Example 263, (3S)-N-Hydroxy-2,2-dimethyl-4-{[4-(2,4-pentadiynyloxy)phenyl]sulfonyl}-3-thiomorpholine carboxamide]	88
CC1(C)SCCN(S(=O)(=O)c2ccc(OCC#CCF)cc2)[C@H]1C(=O)NO [Example 264, (3S)-4-({4-[(4-Fluoro-2-butynyl)oxy]phenyl}sulfonyl)-N-hydroxy-2,2-dimethyl-3-thiomorpholine carboxamide]	94
CC1(C)SCCN(S(=O)(=O)c2ccc(OCC#CCN)cc2)C1C(=O)NO (centres unmarked) [Example 265, 4-({4-[(4-Amino-2-butynyl)oxy]phenyl}sulfonyl)-N-hydroxy-2,2-dimethyl-3-thiomorpholine carboxamide]	40
CC(C)(C)OC(=O)NCC#CCOc1ccc(S(=O)(=O)N2CCSC(C)(C)C2C(=O)NO)cc1 (centres unmarked) [Example 266, tert-Butyl 4-[4-({3-[(hydroxyamino)carbonyl]-2,2-dimethyl-4-thiomorpholinyl}sulfonyl)phenoxy]-2-butynylcarbamate]	79
CN(CC#CCOc1ccc(S(=O)(=O)N2CCSC(C)(C)C2C(=O)NO)cc1)C(=O)OC(C)(C)C (centres unmarked) [Example 267, tert-butyl 4-[4-({3-[(hydroxyamino)carbonyl]-2,2-dimethyl-4-thiomorpholinyl}sulfonyl)phenoxy]-2-butynyl(methyl)carbamate]	15
CC(=O)OCCCCC#CCOc1ccc(S(=O)(=O)N2CCSC(C)(C)[C@@H]2C(=O)NO)cc1 [Example 268, 7-[4-({(3S)-3-[(Hydroxyamino)carbonyl]-2,2-dimethylthiomorpholinyl}sulfonyl)phenoxy]-5-heptynyl acetate]	76
CC1(C)SCCN(S(=O)(=O)c2ccc(OCC#CCCCCO)cc2)[C@H]1C(=O)NO [Example 269, (3S)-N-Hydroxy-4-({4-[(7-hydroxy-2-heptynyl)oxy]phenyl}sulfonyl)-2,2-dimethyl-3-thiomorpholinecarboxamide]	77
